This is an account of results in patent US9682995B2, “Amino-substituted isothiazoles” (BAYER PHARMA AKTIENGESELLSCHAFT, priority 2013, dated 2017).

The target in one experiment is CDK2/CycE (Homo sapiens (Human), UniProt P24941). The experiment is described as follows: CDK2/CycE kinase assay (TR-FRET). The format is biochemical. The following applies: 10 μM ATP; read-out: CDK2 avg (IC50 [mol/l]). From the text:
CDK2/CycE-inhibitory activity of compounds of the present invention was quantified employing the CDK2/CycE TR-FRET assay as described in the following paragraphs.
Recombinant fusion proteins of GST and human CDK2 and of GST and human CycE, expressed in insect cells (Sf9) and purified by Glutathion-Sepharose affinity chromatography, were purchased from ProQinase GmbH (Freiburg, Germany). As substrate for the kinase reaction biotinylated peptide biotin-Ttds-YISPLKSPYKISEG (C-terminus in amid form) was used which can be purchased e.g. form the company JERINI peptide technologies (Berlin, Germany).
For the assay 50 nl of a 100 fold concentrated solution of the test compound in DMSO was pipetted into a black low volume 384 well microtiter plate (Greiner Bio-One, Frickenhausen, Germany), 2 μl of a solution of CDK2/CycE in aqueous assay buffer [50 mM Tris/HCl pH 8.0, 10 mM MgCl2, 1.0 mM dithiothreitol, 0.1 mM sodium ortho-vanadate, 0.01% (v/v) Nonidet-P40 (Sigma)] were added and the mixture was incubated for 15 min at 22° C. to allow pre-binding of the test compounds to the enzyme before the start of the kinase reaction. Then the kinase reaction was started by the addition of 3 μl of a solution of adenosine-tri-phosphate (ATP, 16.7 μM=>final conc. in the 5 μl assay volume is 10 μM) and substrate (1.25 μM=>final conc. in the 5 μl assay volume is 0.75 μM) in assay buffer and the resulting mixture was incubated for a reaction time of 25 min at 22° C. The concentration of CDK2/CycE was adjusted depending of the activity of the enzyme lot and was chosen appropriate to have the assay in the linear range, typical concentrations were in the range of 130 ng/ml. The reaction was stopped by the addition of 5 μl of a solution of TR-FRET detection reagents (0.2 μM streptavidine-XL665 [Cisbio Bioassays, Codolet, France] and 1 nM anti-RB(pSer807/pSer811)-antibody from BD Pharmingen [#558389] and 1.2 nM LANCE EU-W1024 labeled anti-mouse IgG antibody [Perkin-Elmer, product no. AD0077, as an alternative a Terbium-cryptate-labeled anti-mouse IgG antibody from Cisbio Bioassays can be used]) in an aqueous EDTA-solution (100 mM EDTA, 0.2% (w/v) bovine serum albumin in 100 mM HEPES/NaOH pH 7.0).
The resulting mixture was incubated 1 h at 22° C. to allow the formation of complex between the phosphorylated biotinylated peptide and the detection reagents. Subsequently the amount of phosphorylated substrate was evaluated by measurement of the resonance energy transfer from the Eu-chelate to the streptavidine-XL. Therefore, the fluorescence emissions at 620 nm and 665 nm after excitation at 350 nm was measured in a TR-FRET reader, e.g. a Rubystar (BMG Labtechnologies, Offenburg, Germany) or a Viewlux (Perkin-Elmer). The ratio of the emissions at 665 nm and at […] was taken as the measure for the amount of phosphorylated substrate. The data were normalised (enzyme reaction without inhibitor=0% inhibition, all other assay components but no enzyme=100% inhibition).

The next experiment deals with HeLa. The experiment is described as follows: Proliferation assay (crystal violet), HeLa. The format is cell-based. The following applies: Homo sapiens, 96 h, 4 days, read-out: Inhibition of proliferation IC50 HeLa. The protocol:
Cultivated tumor cells (cells were ordered from ATCC, except HeLa-MaTu and HeLa-MaTu-ADR, which were ordered from EPO-GmbH, Berlin) were plated at a density of 1000 to 5000 cells/well, depending on the growth rate of the respective cell line, in a 96-well multititer plate in 200 μL of their respective growth medium supplemented 10% fetal calf serum. After 24 hours, the cells of one plate (zero-point plate) were stained with crystal violet (see below), while the medium of the other plates was replaced by fresh culture medium (200 μl), to which the test substances were added in various concentrations (0 μM, as well as in the range of 0.001-10 μM; the final concentration of the solvent dimethyl sulfoxide was 0.5%). The cells were incubated for 4 days in the presence of test substances. Cell proliferation was determined by staining the cells with crystal violet: the cells were fixed by adding 20 μl/measuring point of an 11% glutaric aldehyde solution for 15 minutes at room temperature. After three washing cycles of the fixed cells with water, the plates were dried at room temperature. The cells were stained by adding 100 μl/measuring point of a 0.1% crystal violet solution (pH 3.0). After three washing cycles of the stained cells with water, the plates were dried at room temperature. The dye was dissolved by adding 100 μl/measuring point of a 10% acetic acid solution. Absorption was determined by photometry at a wavelength of 595 nm. The change of cell number, in percent, was calculated by normalization of the measured values to the absorption values of the zero-point plate (=0%) and the absorption of the untreated (0 μm) cells (=100%). The IC50 values were determined by means of a 4 parameter fit.

For `Cc1nsc(Nc2cnc3ccccc3n2)c1C(=O)Nc1ccc(F)c(F)c1` [Example 50, N-(3,4-Difluorophenyl)-3-methyl-5-(quinoxalin-2-ylamino)-1,2-thiazole-4-carboxamide], the IC50 on CDK2/CycE is more than 20 µM; with HeLa it was 0.45 µM.
The like results for `Cc1nsc(Nc2nc3c(C(F)(F)F)cccc3s2)c1C(=O)Nc1ccc(F)c(F)c1` [Example 51, N-(3,4-Difluorophenyl)-3-methyl-5-{[4-(trifluoromethyl)-1,3-benzothiazol-2-yl]-amino}-1,2-thiazole-4-carboxamide] were, in that order, more than 20 µM and 0.57 µM.
The like results for `Cc1nsc(Nc2ccc(C#N)cn2)c1C(=O)Nc1ccc(Cl)c(F)c1` [Example 52, N-(4-Chloro-3-fluorophenyl)-5-[(5-cyanopyridin-2-yl)amino]-3-methyl-1,2-thiazole-4-carboxamide] were, in that order, more than 20 µM and 0.24 µM.
`Cc1nsc(Nc2nc3c(C(F)(F)F)cccc3s2)c1C(=O)Nc1ccc(Cl)c(F)c1` [Example 53, N-(4-Chloro-3-fluorophenyl)-3-methyl-5-{[4-(trifluoromethyl)-1,3-benzothiazol-2-yl]amino}-1,2-thiazole-4-carboxamide]: the IC50 was more than 20 µM at CDK2/CycE and 1 µM in the experiment on HeLa.
As for `Cc1nsc(Nc2cc(C#N)ccn2)c1C(=O)Nc1ccc(Cl)c(F)c1` [Example 54, N-(4-Chloro-3-fluorophenyl)-5-[(4-cyanopyridin-2-yl)amino]-3-methyl-1,2-thiazole-4-carboxamide], the IC50 at CDK2/CycE is more than 20 µM; in the experiment on HeLa, 0.8 µM.
The like results for `CCOC(=O)c1cnn2ccc(Nc3snc(C)c3C(=O)Nc3ccc(F)c(F)c3)nc12` [Example 55, Ethyl 5-({4-[(3,4-difluorophenyl)carbamoyl]-3-methyl-1,2-thiazol-5-yl}amino)-pyrazolo[1,5-a]pyrimidine-3-carboxylate] were, in that order, more than 20 µM and 0.92 µM.
As for `Cc1nsc(Nc2cnccn2)c1C(=O)Nc1ccc(Cl)c(F)c1` [Example 56, N-(4-Chloro-3-fluorophenyl)-3-methyl-5-(pyrazin-2-ylamino)-1,2-thiazole-4-carboxamide], the values for the IC50 at CDK2/CycE and in the experiment with HeLa were more than 20 µM and 0.79 µM, respectively.
The like results for `Cc1nsc(Nc2ccn3nccc3n2)c1C(=O)Nc1ccc(F)c(F)c1` [Example 57, N-(3,4-Difluorophenyl)-3-methyl-5-(pyrazolo[1,5-a]pyrimidin-5-ylamino)-1,2-thiazole-4-carboxamide] were, in that order, more than 20 µM and 2.9 µM.
In the case of `CCOC(=O)c1cnc(Nc2snc(C)c2C(=O)Nc2ccc(F)c(F)c2)o1` [Example 96, Ethyl 2-({4-[(3,4-difluorophenyl)carbamoyl]-3-methyl-1,2-thiazol-5-yl}amino)-1,3-oxazole-5-carboxylate], the IC50 at CDK2/CycE is more than 20 µM; in the experiment on HeLa, 10 µM.
The like results for `COC(=O)c1cnc(Nc2snc(C)c2C(=O)Nc2ccc(F)c(F)c2)o1` [Example 97, Methyl 2-({4-[(3,4-difluoro-phenyl)carbamoyl]-3-methyl-1,2-thiazol-5-yl}amino)-1,3-oxazole-5-carboxylate] were, in that order, more than 20 µM and 10 µM.
For `CCOC(=O)c1coc(Nc2snc(C)c2C(=O)Nc2ccc(F)c(F)c2)n1` [Example 98, Ethyl 2-({4-[(3,4-difluoro-phenyl)carbamoyl]-3-methyl-1,2-thiazol-5-yl}amino)-1,3-oxazole-4-carboxylate], the IC50 on CDK2/CycE was more than 20 µM; with HeLa, 10 µM.
For `CCNC(=O)c1csc(Nc2snc(C)c2C(=O)Nc2ccc(F)c(F)c2)n1` [Example 99, N-(3,4-Difluorophenyl)-5-{[4-(ethylcarbamoyl)-1,3-thiazol-2-yl]amino}-3-methyl-1,2-thiazole-4-carboxamide] the same measures were more than 20 µM and 3.3 µM.
Regarding `CCOC(=O)c1coc(Nc2snc(C)c2C(=O)Nc2ccc(OC)nc2)n1` [Example 100, Ethyl 2-({4-[(6-methoxypyridin-3-yl)carbamoyl]-3 methyl-1,2-thiazol-5-yl}amino)-1,3-oxazole-4-carboxylate], the IC50 on CDK2/CycE was more than 20 µM; with HeLa, 10 µM.
The like results for `COC(=O)c1cncc(Nc2snc(C)c2C(=O)Nc2ccc(OC)nc2)n1` [Example 101, Methyl 6-({4-[(6-methoxypyridin-3-yl)carbamoyl]-3-methyl-1,2-thiazol-5-yl}amino)pyrazine-2-carboxylate] were, in that order, more than 20 µM and 7.2 µM.
The like results for `Cc1nsc(Nc2nc3c(C(F)(F)F)cccc3s2)c1C(=O)Nc1ccc(Cl)c(Cl)c1` [Example 102, N-(3,4-Dichlorophenyl)-3-methyl-5-{[4-(trifluoromethyl)-1,3-benzothiazol-2-yl]amino}-1,2-thiazole-4-carboxamide] were, in that order, more than 20 µM and 7.3 µM.
On to `Cc1nsc(Nc2nc3c(C(F)(F)F)ccnc3s2)c1C(=O)Nc1ccc(Cl)c(F)c1` [Example 103, N-(4-Chloro-3-fluorophenyl)-3-methyl-5-{[7-(trifluoromethyl)[1,3]thiazolo[5,4-b]pyridin-2-yl]amino}-1,2-thiazole-4-carboxamide], for which the IC50 is more than 20 µM on CDK2/CycE and 2.9 µM in the experiment on HeLa.
The like results for `Cc1nsc(Nc2cncc(C(=O)N(C)C)n2)c1C(=O)Nc1ccc(F)c(F)c1` [Example 104, 6-({4-[(3,4-Difluorophenyl)-carbamoyl]-3-methyl-1,2-thiazol-5-yl}amino)-N,N-dimethyl-pyrazine-2-carboxamide] were, in that order, more than 20 µM and 10 µM.
The like results for `Cc1nsc(Nc2cncc(N(C)C)n2)c1C(=O)Nc1ccc(F)c(F)c1` [Example 105, N-(3,4-Difluorophenyl)-5-{[6-(dimethylamino)pyrazin-2-yl]amino}-3-methyl-1,2-thiazole-4-carboxamide] were, in that order, more than 20 µM and 10 µM.
For `Cc1nsc(Nc2cncc(C(=O)N3CCCC3)n2)c1C(=O)Nc1ccc(F)c(F)c1` [Example 106, N-(3,4-Difluorophenyl)-3-methyl-5-{[6-(pyrrolidin-1-ylcarbonyl)pyrazin-2-yl]amino}-1,2-thiazole-4-carboxamide] the same measures were more than 20 µM and 3.7 µM.
As for `Cc1nsc(Nc2cncc(C(=O)N3CCOCC3)n2)c1C(=O)Nc1ccc(F)c(F)c1` [Example 107, N-(3,4-Difluorophenyl)-3-methyl-5-{[6-(morpholin-4-ylcarbonyl)pyrazin-2-yl]amino}-1,2-thiazole-4-carboxamide], the IC50 at CDK2/CycE is more than 20 µM; with HeLa, 4.9 µM.
For `CNC(=O)c1ccnc(Nc2snc(C)c2C(=O)Nc2ccc(F)c(F)c2)c1` [Example 108, 2-({4-[(3,4-Difluorophenyl)-carbamoyl]-3-methyl-1,2-thiazol-5-yl}amino)-N-methyliso-nicotinamide] the same measures were more than 20 µM and 10 µM.
